Results: patent publication US9096499B2, “Compounds for treatment of cell proliferative diseases” (Board of Regents, The University of Texas System, priority 2003, dated 2015)
“Also recorded” adds a separate entry of the source.

Legend:
[1] = tested on: IFN-α signaling; experiment: IFN-α signaling (Stat1) immunoblot in MM-1 cells; assay type: cell-based; conditions: 12 and 25 μM, IFN-α 10 min
Procedure: (§1) To examine the effect of newly synthesized AG and WP compounds on cytokine-mediated Stat activation, multiple myeloma (MM-1) cells were pretreated with AG490 or AG1801 at 2.5, 12, and 25 μM concentrations (for 2 hr) before stimulating cells with IL-6 or IFN-α for 10 min. Stat3 and Stat1 expression and activation were examined by immunoblotting.

[2] = tested on: U266 MM cells; experiment: MTT cell growth and survival assay, U266 MM cells; assay type: cell-based; conditions: 72 hours; for Growth and survival of U266 cells (in words): MTT, FIG. 2C/3C; for IC50: Homo sapiens, U-266, MTT assay
Procedure: (§2) To determine the effect of AG and WP compounds on MM cell growth/survival, MM cells were incubated with the indicated concentration of AG or WP for 72 hours before cell growth and survival were estimated by MTT assay.
(§3) To determine the effect of AG and WP compounds on MM cell growth/survival MM cells were incubated with the indicated concentration of AG or WP for 72 hours before cell growth and survival were estimated by MTT assay.

[3] = tested on: c-myc mRNA; experiment: Semi-quantitative PCR of c-myc mRNA in MM-1 cells; assay type: cell-based; conditions: 25 μM, 30 min
Procedure: (§4) To determine the temporal effects and mechanism of action of AG490 and AG1801 action on c-myc expression in MM cells, MM-1 cells were incubated with 0, 25, or 50 μM of AG490 or AG1801 and harvested at 30, 60, or 120 min. Lysates were immunoblotted for c-myc or actin as a protein loading control. […] Semi-quantitative PCR was used to measure changes in c-myc mRNA extracted from cells treated for 30 min with AG1801 at 25 μM. GAPDH PCR was used as a control.

[4] = tested on: MM-1 MM cells; experiment: MTT cell growth and survival assay, MM-1 MM cells; assay type: cell-based; conditions: for IC50 / Growth and survival of MM1 cells (in words): 72 hours; for IC50: MTT assay, read-out: IC50 (μM) MM1; for Growth and survival of MM1 cells (in words): MTT, FIG. 2A/3A
Procedure: as §2, §3

[5] = tested on: c-myc; experiment: c-myc protein expression by immunoblot in MM cells; assay type: cell-based; parameters: key to C-Myc: (inhibition = ↓); (no effect) = —; conditions: for C-Myc: c-myc downregulation, immunoblot; for Suppression of c-myc protein expression: 1.56-25 μM WP compounds, CHX 0-30 min at much higher concentrations
Procedure: (§5) To determine the effect of compounds on both Stat3 activation and c-myc protein expression MM-1, OCI-My5 and U266 cells were incubated with 25 μM of AG1801, AG490, WP1038, WP1039, WP1051, or WP1052 for 2 hours before cells were stimulated with 2 ng/ml IL-6 for 10 min. Cell lysates were prepared and immunoblotted for p-Stat3, Stat3, c-myc and actin (as a control).
as §4
These compounds were evaluated for their signal inhibitory and anti-proliferative/apoptotic properties on multiple myeloma, lymphoma and chronic myelogenous leukemia cell lines. WP1015, WP1034, AG1801, and AG490 were tested across a range of concentrations (6,12, and 25 μM) for their ability to inhibit c-myc expression using immunoblots.
These immunoblots tested a range of concentrations (1.56-25 μM for WP compounds) and used β-actin as a control.

[6] = tested on: OCI MM cells; experiment: MTT cell growth and survival assay, OCI MM cells; assay type: cell-based; conditions: 72 hours; for IC50: MTT assay; for Growth and survival of OCI cells (in words): MTT, FIG. 2B/3B
Procedure: as §2, §3

[7] = tested on: MM colonies from bone marrow aspirates of MM patients; experiment: Primary MM colony formation in methyl-cellulose; assay type: cell-based, human; conditions: 12 μM, 7 to 10 days
Procedure: To determine whether these compounds effect primary MM colony growth bone marrow aspirates from MM patients were partially-purified by magnetic bead separation and analyzed for immunoglobulin heavy-chain gene rearrangement by PCR. Cells were grown as colonies in methyl-cellulose in the presence or absence of AG compound as noted for 7 to 10 days. Control colonies were examined for Ig heavy chain gene rearrangement to confirm the clonal nature of the population.

[8] = tested on: OCI-My5 cells; experiment: Caspase activation and PARP cleavage in OCI-My5 cells; assay type: cell-based; conditions: 12.5 and 25 μM
Procedure: To determine whether AG1801 effects caspase activation in MM cells, OCI-My5 cells were treated as described above before cell lysates were examined for casapase activation and PARP cleavage. […] At 12.5 and 25 μM, AG490 was ineffective in caspase activation and PARP clevage in these cells.

[9] = tested on: Stat3; experiment: IL-6 mediated Stat3 activation (p-Stat3 immunoblot) in MM cells; assay type: cell-based; parameters: key to P-Stat 3: (inhibition = ↓); (no effect) = —; conditions: for P-Stat 3: Stat3 inhibition, immunoblot
Procedure: as §1
as §5, with “control). Both Stat3 activation and c-myc expression were effected by WP and AG compounds.” for “control).”

[10] = tested on: c-myc/Stat3; experiment: Stat3/c-myc inhibitory activity in MM-1 cells (FIG. 7); assay type: cell-based
Excerpt: An improved inhibition of c-myc/Stat3 by WP1066, WP1130, and WP1129 was observed (FIG. 7). The compounds were compared with regard to their Stat3/c-myc inhibitory activity in MM-1 cells.

[11] = tested on: c-myc; experiment: c-myc protein immunoblot in LP non-Hodgkin lymphoma cells; assay type: cell-based; conditions: for c-myc expression: 3-25 μM
Procedure: Additional cell types were examined for response to treatment with WP1066.
(§6) Further studies were conducted to determine the dose and time dependent effects of these new compounds on IL-6 mediated Stat3 activation, c-myc protein expression and anti-proliferative of LP and other cell types.

[12] = tested on: Stat3; experiment: IL-6 mediated Stat3 activation immunoblot in LP cells; assay type: cell-based; conditions: 3-25 μM
Procedure: as §6

[13] = tested on: human A375 melanoma tumors; experiment: A375 melanoma tumors in nude mice; assay type: in vivo, Swiss nude mice; conditions: 40 mg/kg i.p. every other day, 8 injections from day 7, to day 21
Procedure: The results of animal studies of human A375 melanoma tumors growing in nude mice, treated with WP1066 after tumors reached a palpable size, are shown in FIG. 8. The following animal model was used to evaluate the anti-tumor and anti-cancer effects of the compounds: on Day 0, A375 cells were suspended to 20×10^6 cells/ml in RPMI 1640 medium. On day 0, 0.2 ml of this suspension containing A375 cells was injected (s.c.) into female Swiss nude mice 6-7 weeks of age. On Day 7, 40 mg/kg of WP1066 was injected (i.p.) into the above mice in a 0.1 ml suspension of DMSO/PEG300 (50/50) on a qd, every other day schedule for 8 injections. Five mice per experimental group were used, including a vehicle (DMSO/PEG300) control group. Animals received 40 mg/kg WP1066 every other day […] for a total of 8 injections. The control group reached maximum tumor burden at day 21, and for this reason the experiment was stopped.

[14] = tested on: MM-1, Mino, WDT-2, WDT-3, K562, K562-R cell lines; experiment: Anti-proliferative/apoptotic action on c-myc overexpressing cell lines (FIG. 5); assay type: cell-based; conditions: FIG. 5, incl. Imatinib-resistant K562-R
Excerpt: The anti-proliferative/apoptotic actions of WP1066 were also examined on cell lines known to overexpress c-myc. […] Thus WP1066 clearly exerts a potent inhibition of cell proliferation and/or survival in multiple cancer cell lines, and WP1066 will be used as a therapeutic.

Structure (SMILES): N#C/C(=C\c1ccc([N+](=O)[O-])cc1)C(=O)NCc1ccccc1 [AG 1801]
- Effect on IFN-α signaling [1]: without effecting IFN-α
- Growth and survival of U266 cells (in words) [2]: effective in reducing the growth and survival; also recorded: demonstrated increased potency compared to AG490
- IC50 [2]: 9 µM
- c-myc mRNA expression [3]: minimal effects
- IC50 [4]: 7.5 µM
- Growth and survival of MM1 cells (in words) [4]: effective in reducing the growth and survival; also recorded: demonstrated increased potency compared to AG490
- c-myc expression, temporal effects ([5]; MM-1 cells, 25 and 50 μM, 30, 60, 120 min): rapidly reduced c-myc expression
- C-Myc [5]: ↓
- IC50 [6]: 12 µM
- Growth and survival of OCI cells (in words) [6]: effective in reducing the growth and survival; also recorded: demonstrated increased potency compared to AG490
- Inhibition of MM colony formation [7]: completely inhibited MM colony formation
- Caspase activation (caspase 3 and caspase 8) [8]: activated both upstream and downstream caspases
- PARP cleavage [8]: increased PARP clevage
- Suppression of IL-6 signaling (Stat3 activation) ([9]; MM-1 cells, 2 hr pretreatment, 12 and 25 μM, IL-6 10 min): effective in suppressing IL-6 signaling
- P-Stat 3 [9]: ↓

Structure (SMILES): C[C@@H]1C[C@@H]([C@H](O)CC2CC(=O)NC(=O)C2)C(=O)[C@@H](C)C1 [CHX, cycloheximide, reference compound]
- Suppression of c-myc protein expression [5]: did not result in the rapid reduction of c-myc

Structure (SMILES): CCC[C@H](NC(=O)/C(C#N)=C/c1cccc(Br)n1)c1ccccc1 [WP1130]
- IC50 against MM-1 myeloma relative to WP1066 ([4]; FIG. 6): even better than compound WP1066
- Inhibition of c-myc/Stat3 [10]: Strong inhibition

Structure (SMILES): N#C/C(=C\c1cccc(Br)n1)C(=O)NCc1ccccc1 [WP 1015]
- c-myc expression ([11]; LP cells): reduced c-myc expression
- IC50 [4]: 1.9 µM
- Inhibition of c-myc protein expression ([5]; 6, 12, 25 μM, AG490 up to 50 μM): more active than previously synthesized WP compounds
- C-Myc [5]: ↓
- Inhibition of Stat3 phosphorylation ([9]; MM-1 cells): more effective in inhibiting Stat3 phosphorylation
- IL-6 mediated Stat3 activation [12]: blocked IL-6 mediated Stat3 activation

Structure (SMILES): C[C@@H](NC(=O)/C(C#N)=C/c1ccc([N+](=O)[O-])cc1)c1ccccc1 [WP 1034]
- Growth and survival of U266 cells (in words) [2]: effective in reducing the growth and survival; also recorded: demonstrated increased potency compared to AG490
- IC50 [2]: 4.5 µM
- IC50 [4]: 3.5 µM
- Growth and survival of MM1 cells (in words) [4]: effective in reducing the growth and survival; also recorded: demonstrated increased potency compared to AG490
- C-Myc [5]: ↓
- IC50 [6]: 6.3 µM
- Growth and survival of OCI cells (in words) [6]: effective in reducing the growth and survival; also recorded: demonstrated increased potency compared to AG490

Structure (SMILES): C[C@@H](NC(=O)/C(C#N)=C/c1ccc([N+](=O)[O-])c(O)c1)c1ccccc1 [WP 1038]
- IC50 [2]: 11.8 µM
- IC50 [4]: 6.2 µM
- C-Myc [5]: ↓
- IC50 [6]: > 12.5 µM
- P-Stat 3 [9]: ↓

Structure (SMILES): C[C@H](NC(=O)/C(C#N)=C/c1ccc([N+](=O)[O-])cc1)c1ccccc1 [WP 1050]
- Growth and survival of U266 cells (in words) [2]: demonstrated increased potency compared to AG490
- IC50 [2]: 5 µM
- IC50 [4]: 2.1 µM
- Growth and survival of MM1 cells (in words) [4]: demonstrated increased potency compared to AG490
- C-Myc [5]: ↓
- IC50 [6]: > 12.5 µM
- Growth and survival of OCI cells (in words) [6]: demonstrated increased potency compared to AG490

Structure (SMILES): C[C@H](NC(=O)/C(C#N)=C/c1ccc([N+](=O)[O-])c(O)c1)c1ccccc1 [WP 1051]
- IC50 [2]: 11.1 µM
- IC50 [4]: 5.5 µM
- C-Myc [5]: ↓
- IC50 [6]: > 12.5 µM
- P-Stat 3 [9]: ↓

Structure (SMILES): C[C@H](NC(=O)/C(C#N)=C/c1ccccn1)c1ccccc1 [WP 1065]
- IC50 [4]: 3 µM

Structure (SMILES): C[C@H](NC(=O)/C(C#N)=C/c1cccc(Br)n1)c1ccccc1 [WP 1066]
- Tumor size / tumor volume in vivo [13]: decrease tumor size; also recorded: reduces tumor volume
- c-myc expression ([11]; LP cells): reduced c-myc expression
- Downregulation of c-myc protein ([11]; LP cells, 5, 15, 30, 60 min): rapid downregulation of c-myc protein
- Reduction in c-myc at shortest incubation ([11]; LP cells, 5 min): strong reduction
- IC50 [4]: 1.3 µM
- Suppression of c-myc protein expression [5]: more active in suppressing c-myc protein expression than WP1015
- C-Myc [5]: ↓
- Cell proliferation and/or survival in multiple cancer cell lines [14]: dose-dependent anti-tumor effects; also recorded: effective in reducing cell proliferation
- Inhibition of c-myc/Stat3 [10]: Strong inhibition
- IL-6 mediated Stat3 activation [12]: blocked IL-6 mediated Stat3 activation; also recorded: slightly better activity than WP1015

Structure (SMILES): N#C/C(=C\c1cc(O)ccc1[N+](=O)[O-])C(=O)NCc1ccccc1 [WP 1073]
- IC50 [4]: > 2.5 µM

Structure (SMILES): N#C/C(=C\c1cccc([N+](=O)[O-])c1)C(=O)NCc1ccccc1 [WP 1074]
- IC50 [4]: > 2.5 µM

Structure (SMILES): N#C/C(=C\c1cccnc1)C(=O)NCc1ccccc1 [WP 1075]
- IC50 [4]: > 2.5 µM

Structure (SMILES): CN(C)c1ccc(/C=C(\C#N)C(=O)NCc2ccccc2)c([N+](=O)[O-])c1 [WP 1076]
- IC50 [4]: > 2.5 µM

Structure (SMILES): N#C/C(=C\c1ccc(Cl)c([N+](=O)[O-])c1)C(=O)NCc1ccccc1 [WP 1077]
- IC50 [4]: 2.5 µM
